Experimental data from US20090253651A1, “DRUG DELIVERY SYSTEM BASED ON REGIOSELECTIVELY AMIDATED HYALURONIC ACID” (EURAND PHARMACEUTICALS LTD., priority 2006, published 2009).

Columns and labels:
Format in all cases: cell-based
H460 (lung carcinoma) = experiment: Antiproliferative activity, MTT test, H460; settings: Homo sapiens, NCI-H460; H460 cells, 5 days treatment, MTT on day 6; read-out: IC50, concentration necessary to reduce the cell growth to 50% of the growth of the control
Protocol: (§1) Antiproliferative activity of the DDS was determined on three lines of carcinoma (HT29: colon rectal carcinoma, H460: lung carcinoma, H460M2: lung metastatic carcinoma which are CPT sensitive. Cells were incubated in 96-well plates for 5 days in complete RPMI1640 Medium (Sigma Chemical Co.) supplemented with 10% FBS (Hyclone Europe), 2 mM L-glutamine (Hyclone Europe), and 100 U/ml penicillin G and 100 ug/ml streptomycin (Sigma Chemical Co.) at […], and in controlled atmosphere (5% CO2), with irinotecan and DDSs of examples 38, 39, 41; the DDS were tested at doses equimolar with those of the reference, in the range 3-30 nM and 0.1-30 μM.
(§2) Cytotoxicity was determined on day 6 (after 5 days treatments) by the MTT test, by measuring cell viability as the cell metabolic capacity to transform the tetrazolium salt of MTT in the blue formazan, by mitochondrial dehydrogenases; the blue colour is read at 570 nm with a spectrophotometer. The following DDSs were tested.

[1] = system: H460-M2 (lung metastatic carcinoma); experiment: Antiproliferative activity, MTT test, H460-M2; settings: H460-M2 cells, 5 days treatment, MTT on day 6; read-out: IC50, concentration necessary to reduce the cell growth to 50% of the growth of the control
Protocol: as §1, §2

[2] = system: HT29 (colon rectal carcinoma); experiment: Antiproliferative activity, MTT test, HT29; settings: Homo sapiens, HT-29; HT29 cells, 5 days treatment, MTT on day 6; read-out: IC50, concentration necessary to reduce the cell growth to 50% of the growth of the control
Protocol: as §1, §2

CCc1c2c(nc3ccc(OC(=O)N4CCC(N5CCCCC5)CC4)cc13)-c1cc3c(c(=O)n1C2)COC(=O)[C@]3(O)CC [Irinotecan, irinotecan]
IC50 (H460 (lung carcinoma)): 0.44 µM
IC50 [1]: 0.46 µM
IC50 [2]: 0.25 µM
